Source: paper PMC7150989 (Viruses, 2020)
Where two headings read alike, the source gives them in different places.

Columns and labels:
[1] = molecular target: H5N1 virus neuraminidase (Influenza A virus, UniProt Q9Q0U7); experiment: biochemical; conditions: for inhibition at 6.25 µM / inhibition at 12.5 µM / inhibition at 25 µM / inhibition at 50 µM / inhibition at 100 µM / inhibition at 200 µM / inhibition at 400 µM: read-out: The neuraminidase inhibitory rate (%)
[2] = system: MDCK cells; conditions: dog
[3] = system: A/Duck/Guangdong/212/2004 (H5N1) virus; experiment: microbe, parasite or virus in culture; type: cell-based, H5N1 avian influenza virus
[4] = system: wild-type A/Thailand/kan353/2004 (H5N1) pseudo-typed virus; experiment: microbe, parasite or virus in culture; type: cell-based, H5N1 pseudovirus; conditions: Influenza A virus, H5N1, MDCK; for inhibition at 1.56 µM / inhibition at 3.13 µM / inhibition at 6.25 µM / inhibition at 12.5 µM / inhibition at 25 µM / inhibition at 50 µM / inhibition at 100 µM / inhibition at 200 µM: 48 h, read-out: inhibitory rates against pseudotyped virus, Wildtype Strain; for IC50: read-out: IC50 against H5N1 pseudovirus
[5] = molecular target: HA protein (Influenza A virus, UniProt Q9Q0U6); experiment: biochemical; type: binding, H5N1 virus
Sequence of HA protein (Q9Q0U6 17-568 limits assumed): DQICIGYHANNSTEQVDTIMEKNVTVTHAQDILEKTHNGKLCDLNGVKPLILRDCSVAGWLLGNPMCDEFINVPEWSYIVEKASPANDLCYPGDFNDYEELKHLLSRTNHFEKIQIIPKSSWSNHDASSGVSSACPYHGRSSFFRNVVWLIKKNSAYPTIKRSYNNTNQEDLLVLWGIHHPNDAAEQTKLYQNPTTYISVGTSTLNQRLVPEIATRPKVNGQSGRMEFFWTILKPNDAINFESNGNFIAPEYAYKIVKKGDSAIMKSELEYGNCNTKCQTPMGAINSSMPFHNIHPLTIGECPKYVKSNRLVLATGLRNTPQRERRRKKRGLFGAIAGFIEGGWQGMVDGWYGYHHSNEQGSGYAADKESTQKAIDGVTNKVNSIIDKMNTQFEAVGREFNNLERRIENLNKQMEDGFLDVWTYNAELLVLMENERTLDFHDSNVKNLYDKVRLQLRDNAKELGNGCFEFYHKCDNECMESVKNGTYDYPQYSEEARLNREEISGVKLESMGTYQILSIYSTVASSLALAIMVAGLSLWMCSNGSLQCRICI

[6] = system: H5N1 virus; experiment: microbe, parasite or virus in culture; type: cell-based, H5N1 avian influenza virus; conditions: Influenza A virus
[7] = system: VSVG pseudovirus; experiment: microbe, parasite or virus in culture; type: cell-based, vesicular stomatitis virus (VSVG); conditions: for inhibition at 1.56 µM / inhibition at 3.13 µM / inhibition at 6.25 µM / inhibition at 12.5 µM / inhibition at 25 µM / inhibition at 50 µM / inhibition at 100 µM / inhibition at 200 µM: Pseudovirus, MDCK, 48 h, read-out: inhibitory rates, VSVG pseudovirus group
[8] = system: H5N1 virus HA1 (hemagglutination of chicken erythrocytes)
[9] = in vitro; conditions: dog
[10] = system: A/Vietnam/1203/2004(H5N1) and A/Goose/Qinghai/59/05(H5N1) pseudotyped viral entry; conditions: read-out: IC50 against pseudotyped viral entry; cited from earlier work
[11] = Influenza A virus, H5N1, MDCK, read-out: Inhibition rates to H5N1 virus (%)
[12] = H5N1, read-out: inhibition rate of viral plaques forming

Sequence of H5N1 virus neuraminidase (Q9Q0U7 whole entry, looked up): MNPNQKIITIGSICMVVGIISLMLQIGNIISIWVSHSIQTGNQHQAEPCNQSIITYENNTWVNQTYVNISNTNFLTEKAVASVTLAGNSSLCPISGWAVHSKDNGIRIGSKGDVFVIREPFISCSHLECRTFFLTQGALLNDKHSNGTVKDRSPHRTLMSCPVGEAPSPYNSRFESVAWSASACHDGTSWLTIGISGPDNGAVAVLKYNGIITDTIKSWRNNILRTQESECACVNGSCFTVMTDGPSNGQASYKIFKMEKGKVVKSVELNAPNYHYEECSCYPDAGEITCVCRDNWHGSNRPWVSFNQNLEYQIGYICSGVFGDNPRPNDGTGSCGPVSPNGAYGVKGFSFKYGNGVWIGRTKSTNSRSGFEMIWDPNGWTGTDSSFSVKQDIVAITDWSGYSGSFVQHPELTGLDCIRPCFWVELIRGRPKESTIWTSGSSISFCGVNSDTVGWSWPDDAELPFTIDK

CCOC(=O)C1=C[C@@H](OC(CC)CC)[C@H](NC(C)=O)[C@@H](N)C1 [Osetamivir, reference compound]
IC50 [1]: 0.00887 µM

CC1CCC2(OC1)OC1CC3C4CC(=O)C5CC(OC6OC(CO)C(OC7OC(C)C(O)C(O)C7O)C(O)C6OC6OC(C)C(O)C(O)C6O)CCC5(C)C4CCC3(C)C1C2C (stereo not drawn) [UA-Nu-ph-5]
CC50 [2]: 127 ± 1.7 µM
Inhibition rates to H5N1 virus (%) ([3]; 0.39 µM): 0%
Inhibition rates to H5N1 virus (%) ([3]; 0.78 µM): 10.75±2.01%
Inhibition rates to H5N1 virus (%) ([3]; 1.56 µM): 10.78±3.11%
Inhibition rates to H5N1 virus (%) ([3]; 3.13 µM): 16.51±6.34%
Inhibition rates to H5N1 virus (%) ([3]; 50 µM): 65.30±4.73%
IC50 ([3]; Influenza A virus, H5N1, MDCK): 15.6 ± 2.4 µM
inhibition at 6.25 µM [3, 11]: 35 ± 10.8%
inhibition at 12.5 µM [3, 11]: 47.1 ± 1.63%
inhibition at 25 µM [3, 11]: 61.7 ± 5.4%
inhibition at 100 µM [3, 11]: 79.1 ± 3.27%

CC1CCC2(OC1)OC1CC3C4CC(=O)C5CC(OC6OC(CO)C(OC7OC(C)C(O)C(O)C7O)C(O)C6OC6OC(C)C(O)C(O)C6O)CCC5(C)C4CCC3(C)C1C2C (stereo not drawn) [XC-27-1]
inhibition at 1.56 µM [4]: 33.6 ± 5.25%
inhibition at 3.13 µM [4]: 38 ± 3.24%
inhibition at 6.25 µM [4]: 40.7 ± 10.9%
inhibition at 12.5 µM [4]: 49 ± 11.7%
inhibition at 25 µM [4]: 60.7 ± 3.73%
inhibition at 50 µM [4]: 64.8 ± 2.96%
inhibition at 100 µM [4]: 78 ± 2.16%
inhibition at 200 µM [4]: 95.3 ± 3.6%
IC50 [4]: 12.8 ± 7.01 µM
CC50 [2]: 1247 ± 1.16 µM
in vitro cytotoxicity decreased (fold) than that of XC-27-2 [2]: 16 fold
inhibition activity on NA (in words) [1]: very low inhibition activity
inhibition at 6.25 µM [1]: 6.57 ± 6.89%
inhibition at 12.5 µM [1]: 0.18 ± 8.13%
inhibition at 25 µM [1]: -6.95 ± 12.7%
inhibition at 50 µM [1]: 5.37 ± 14.4%
inhibition at 100 µM [1]: 6.45 ± 14.9%
inhibition at 200 µM [1]: 7.07 ± 9.83%
inhibition at 400 µM [1]: 24.5 ± 8.38%
Kd [5]: 257 µM
IC50 [3]: 16.8 ± 1.45 µM
Inhibition rates to H5N1 virus (%) ([3]; 0.39 µM): 27.54±1.11%
Inhibition rates to H5N1 virus (%) ([3]; 0.78 µM): 31.73±6.04%
Inhibition rates to H5N1 virus (%) ([3]; 1.56 µM): 37.01±4.82%
Inhibition rates to H5N1 virus (%) ([3]; 3.13 µM): 40.85±8.91%
Inhibition rates to H5N1 virus (%) ([3]; 6.25 µM): 46.13±10.59%
Inhibition rates to H5N1 virus (%) ([3]; 12.5 µM): 55.30±3.74%
Inhibition rates to H5N1 virus (%) ([3]; 25 µM): 75.06±10.43%
Inhibition rates to H5N1 virus (%) ([3]; 50 µM): 85.71±5.06%
inhibition at 40 µM [6, 12]: 95%
inhibitory effects on the VSVG pseudovirus [7]: no inhibitory effects
inhibition at 1.56 µM [7]: -0.74 ± 6.43%
inhibition at 3.13 µM [7]: -1.52 ± 4.89%
inhibition at 6.25 µM [7]: -4.3 ± 3.47%
inhibition at 12.5 µM [7]: 3.54 ± 4.16%
inhibition at 25 µM [7]: 0.83 ± 6.72%
inhibition at 50 µM [7]: 3.97 ± 5.2%
inhibition at 100 µM [7]: 4.8 ± 4.97%
inhibition at 200 µM [7]: 4.75 ± 3.18%
inhibitory effects to the hemagglutination reaction induced by the virus HA1 [8]: had not produced inhibitory effects

CC1CCC2(OC1)OC1CC3C4CC(O)C5CC(OC6OC(CO)C(OC7OC(C)C(O)C(O)C7O)C(O)C6OC6OC(C)C(O)C(O)C6O)CCC5(C)C4CCC3(C)C1C2C (stereo not drawn) [XC-27-2]
inhibition at 1.56 µM [4]: 26.8 ± 9.96%
inhibition at 3.13 µM [4]: 30.1 ± 12.2%
inhibition at 6.25 µM [4]: 35.8 ± 12.1%
inhibition at 12.5 µM [4]: 46.3 ± 6.37%
inhibition at 25 µM [4]: 47.4 ± 13.2%
inhibition at 50 µM [4]: 64.9 ± 12.5%
inhibition at 100 µM [4]: 90.5 ± 2.35%
inhibition at 200 µM [4]: 95.98 ± 0.68%
IC50 [4]: 18.5 ± 1.82 µM
inhibition activity on NA (in words) [1]: very low inhibition activity
inhibition at 6.25 µM [1]: 1.09 ± 2.99%
inhibition at 12.5 µM [1]: 5.75 ± 4.41%
inhibition at 25 µM [1]: 2.89 ± 8.39%
inhibition at 50 µM [1]: 10.5 ± 16.5%
inhibition at 100 µM [1]: 13.3 ± 4.06%
inhibition at 200 µM [1]: 15.6 ± 2.97%
inhibition at 400 µM [1]: 32 ± 10%
Kd [5]: 367 µM
IC50 ([3]; Influenza A virus, H5N1, MDCK): 12.5 ± 2.27 µM
inhibition at 0.39 µM [3, 11]: 31.9 ± 4.33%
inhibition at 0.78 µM [3, 11]: 38.6 ± 0.68%
inhibition at 1.56 µM [3, 11]: 41.5 ± 2.01%
inhibition at 3.13 µM [3, 11]: 47.1 ± 5.94%
inhibition at 6.25 µM [3, 11]: 55.6 ± 3.97%
inhibition at 12.5 µM [3, 11]: 62.2 ± 0.99%
inhibition at 25 µM [3, 11]: 71 ± 4.31%
inhibition at 50 µM [3, 11]: 96.8 ± 1.51%
inhibition at 40 µM ([6]; H5N1, read-out: inhibition percentage of H5N1 viral plaques forming amounts): 91%
inhibition at 40 µM [6, 12]: 96%
CC50 [9]: 73.8 ± 0.79 µM
inhibitory effects on the VSVG pseudovirus [7]: no inhibitory effects
inhibition at 1.56 µM [7]: 2.62 ± 4.57%
inhibition at 3.13 µM [7]: -3.39 ± 4.64%
inhibition at 6.25 µM [7]: 0.17 ± 5.78%
inhibition at 12.5 µM [7]: 1.54 ± 13.9%
inhibition at 25 µM [7]: 0.46 ± 0.94%
inhibition at 50 µM [7]: 0.34 ± 6.12%
inhibition at 100 µM [7]: 6.84 ± 5.83%
inhibition at 200 µM [7]: 6.52 ± 2.16%
inhibitory effects to the hemagglutination reaction induced by the virus HA1 [8]: had not produced inhibitory effects

CC1CCC2(OC1)OC1CC3C4CC(O)C5CC(OC6OC(CO)C(OC7OC(C)C(O)C(O)C7O)C(O)C6OC6OC(C)C(O)C(O)C6O)CCC5(C)C4CCC3(C)C1C2C (stereo not drawn) [chlorogenin 3-O-β-chacotrioside]
IC50 [10]: 7.22 to 9.25 µM

CCC(CC)[C@H](NC(C)=O)[C@@H]1[C@H](O)[C@@H](C(=O)O)C[C@H]1N=C(N)N [peramivir, reference compound]
IC50 ([1]; read-out: IC50 against H5N1 viral NA): 0.000668 µM

NC(=O)c1ncn([C@@H]2O[C@H](CO)[C@@H](O)[C@H]2O)n1 [ribavirin, reference compound]
IC50 ([3]; Influenza A virus, H5N1, MDCK): 37.2 ± 1.6 µM
CC50 [9]: 132 ± 0.87 µM
